{"source": "patent EP0510036B1", "about": "“2-SUBSTITUTED 4,5-DIPHENYL-IMIDAZOLES” (RHONE-POULENC RORER S.A., priority 1990, dated 1991)", "key": {"[1]": {"test_system": "acyl coenzyme-A:cholesterol-O-acyl transferase (ACAT; EC 2.3.1.26)", "assay": "ACAT inhibition in rat liver microsomes incubated with radiolabelled oleoyl-CoA", "format": "biochemical", "details": "liver microsomes of rats fed 0.5%w/w cholesterol and 0.25%w/w cholic acid for 7 days; for In-vitro % Inhibition at 1»g/ml: compound at 1»g/ml; for In-vitro % Inhibition at 0.5»g/ml: compound at 0.5»g/ml", "procedure": "In assays performed in-vitro, microsomes, obtained from the livers of rats fed on a diet supplemented with 0.5%w/w cholesterol and 0.25%w/w cholic acid for 7 days, were incubated with radiolabelled oleoyl-CoA in the presence of compounds according to the invention at a concentration of 0.5 or 1 »g/ml."}, "[2]": {"test_system": "plasma cholesterol concentrations", "assay": "Inhibition of increases in plasma cholesterol in cholesterol-fed rats", "format": "in vivo", "details": "diet supplemented by 0.03% w/w of test compound, measured after 3 days, relative to control animals"}}}
{"smiles": "c1ccc(-c2nc(SCCCCCCn3cncn3)[nH]c2-c2ccccc2)cc1", "note": "[Compound 1L, 2-[6-(1,2,4-triazol-1-yl)hexylthio]-4,5-diphenylimidazole]", "values": [{"measurement": "In-vitro % Inhibition at 1»g/ml", "setting": "[1]", "value": 91, "unit": "%"}]}
{"smiles": "c1ccc(-c2nc(SCCCn3ncnn3)[nH]c2-c2ccccc2)cc1", "note": "[Compound 1R, 2-[3-(tetrazol-2-yl)propylthio]-4,5-diphenylimidazole]", "values": [{"measurement": "In-vitro % Inhibition at 1»g/ml", "setting": "[1]", "value": 80, "unit": "%"}]}
{"smiles": "c1ccc(-c2nc(SCCCCn3cnnn3)[nH]c2-c2ccccc2)cc1", "note": "[Compound 1S, 2-[4-(tetrazol-1-yl)butylthio]-4,5-diphenylimidazole]", "values": [{"measurement": "In-vitro % Inhibition at 0.5»g/ml", "setting": "[1]", "value": 84, "unit": "%"}, {"measurement": "In-vivo % Inhibition", "setting": "[2]", "value": 41, "unit": "%"}]}
{"smiles": "c1ccc(-c2nc(SCCCCn3cncn3)[nH]c2-c2ccccc2)cc1", "note": "[Compound 1E, 2-[4-(1,2,4-triazol-1-yl)butylthio]-4,5-diphenylimidazole]", "values": [{"measurement": "In-vitro % Inhibition at 1»g/ml", "setting": "[1]", "value": 86, "unit": "%"}, {"measurement": "In-vivo % Inhibition", "setting": "[2]", "value": 53, "unit": "%"}]}
{"smiles": "Cc1ncc([N+](=O)[O-])n1CCSc1nc(-c2ccccc2)c(-c2ccccc2)[nH]1", "note": "[Compound 1O, 2-[2-(2-methyl-5-nitroimidazol-1-yl)ethylthio]-4,5-diphenylimidazole]", "values": [{"measurement": "In-vitro % Inhibition at 0.5»g/ml", "setting": "[1]", "value": 82, "unit": "%"}]}
{"smiles": "c1ccc(-c2nc(SCCCn3cccn3)[nH]c2-c2ccccc2)cc1", "note": "[Compound 1B, 2-[3-(pyrazol-1-yl)propylthio]-4,5-diphenylimidazole]", "values": [{"measurement": "In-vitro % Inhibition at 1»g/ml", "setting": "[1]", "value": 83, "unit": "%"}]}
{"smiles": "c1ccc(-c2nc(SCCCCn3ncnn3)[nH]c2-c2ccccc2)cc1", "note": "[Compound 1T, 2-[4-(tetrazol-2-yl)butylthio]-4,5-diphenylimidazole]", "values": [{"measurement": "In-vitro % Inhibition at 0.5»g/ml", "setting": "[1]", "value": 74, "unit": "%"}]}
{"smiles": "c1ccc(-c2nc(SCCCn3ccnc3)[nH]c2-c2ccccc2)cc1", "note": "[Compound 1H, 2-[3-(imidazol-1-yl)propylthio]-4,5-diphenylimidazole]", "values": [{"measurement": "In-vitro % Inhibition at 1»g/ml", "setting": "[1]", "value": 80, "unit": "%"}]}
{"smiles": "Cn1ccnc1CSc1nc(-c2ccccc2)c(-c2ccccc2)[nH]1", "note": "[Compound 1J, 2-[(1-methylimidazol-2-yl)methylthio]-4,5-diphenylimidazole]", "values": [{"measurement": "In-vitro % Inhibition at 1»g/ml", "setting": "[1]", "value": 85, "unit": "%"}]}
{"smiles": "Cc1nccn1CCCSc1nc(-c2ccccc2)c(-c2ccccc2)[nH]1", "note": "[Compound 1A, 2-[3-(2-methylimidazol-1-yl)propylthio]-4,5-diphenylimidazole]", "values": [{"measurement": "In-vitro % Inhibition at 1»g/ml", "setting": "[1]", "value": 90, "unit": "%"}, {"measurement": "In-vivo % Inhibition", "setting": "[2]", "value": 64, "unit": "%"}]}
{"smiles": "c1ccc(-c2nc(SCCCn3cnnn3)[nH]c2-c2ccccc2)cc1", "note": "[Compound 1Q, 2-[3-(tetrazol-1-yl)propylthio]-4,5-diphenylimidazole]", "values": [{"measurement": "In-vitro % Inhibition at 1»g/ml", "setting": "[1]", "value": 88, "unit": "%"}]}
{"smiles": "Cc1nccn1CCCCSc1nc(-c2ccccc2)c(-c2ccccc2)[nH]1", "note": "[Compound 1M, 2-[4-(2-methylimidazol-1-yl)butylthio]-4,5-diphenylimidazole]", "values": [{"measurement": "In-vitro % Inhibition at 0.5»g/ml", "setting": "[1]", "value": 87, "unit": "%"}, {"measurement": "In-vivo % Inhibition", "setting": "[2]", "value": 26, "unit": "%"}]}
{"smiles": "Cl.Cn1ccnc1CSc1nc(-c2ccccc2)c(-c2ccccc2)[nH]1", "note": "[Compound 1JA, 2-[(1-methylimidazol-2-yl)methylthio]-4,5-diphenylimidazole hydrochloride]", "values": [{"measurement": "In-vitro % Inhibition at 1»g/ml", "setting": "[1]", "value": 82, "unit": "%"}, {"measurement": "In-vivo % Inhibition", "setting": "[2]", "value": 23, "unit": "%"}]}
{"smiles": "c1ccc(-c2nc(SCCn3cncn3)[nH]c2-c2ccccc2)cc1", "note": "[Compound 1C, 2-[2-(1,2,4-triazol-1-yl)ethylthio]-4,5-diphenylimidazole]", "values": [{"measurement": "In-vitro % Inhibition at 1»g/ml", "setting": "[1]", "value": 88, "unit": "%"}]}
{"smiles": "c1ccc(-c2nc(SCCCn3ccnc3-c3ccccc3)[nH]c2-c2ccccc2)cc1", "note": "[Compound 1N, 2-[3-(2-phenylimidazol-1-yl)propylthio]-4,5-diphenylimidazole]", "values": [{"measurement": "In-vitro % Inhibition at 0.5»g/ml", "setting": "[1]", "value": 57, "unit": "%"}]}
{"smiles": "Cc1cc(C)n(CCCSc2nc(-c3ccccc3)c(-c3ccccc3)[nH]2)n1", "note": "[Compound 1P, 2-[3-(3,5-dimethylpyrazol-1-yl)propylthio]-4,5-diphenylimidazole]", "values": [{"measurement": "In-vitro % Inhibition at 0.5»g/ml", "setting": "[1]", "value": 87, "unit": "%"}]}
{"smiles": "c1ccc(-c2nc(SCCn3ccnc3)[nH]c2-c2ccccc2)cc1", "note": "[Compound 1G]", "values": [{"measurement": "In-vitro % Inhibition at 1»g/ml", "setting": "[1]", "value": 86, "unit": "%"}]}
{"smiles": "c1ccc(-c2nc(SCCCn3cncn3)[nH]c2-c2ccccc2)cc1", "note": "[Compound 1D, 2-[3-(1,2,4-triazol-1-yl)propylthio]-4,5-diphenylimidazole]", "values": [{"measurement": "In-vitro % Inhibition at 1»g/ml", "setting": "[1]", "value": 84, "unit": "%"}]}
{"smiles": "c1ccc(-c2nc(SCCCCCn3cncn3)[nH]c2-c2ccccc2)cc1", "note": "[Compound 1F, 2-[5-(1,2,4-triazol-1-yl)pentylthio]-4,5-diphenylimidazole]", "values": [{"measurement": "In-vitro % Inhibition at 1»g/ml", "setting": "[1]", "value": 92, "unit": "%"}, {"measurement": "In-vivo % Inhibition", "setting": "[2]", "value": 74, "unit": "%"}]}
{"smiles": "CC(Sc1nc(-c2ccccc2)c(-c2ccccc2)[nH]1)n1ccnc1", "note": "(racemic) [Compound 1I, (±)-2-[1-(imidazol-1-yl)ethylthio]-4,5-diphenylimidazole]", "values": [{"measurement": "In-vitro % Inhibition at 1»g/ml", "setting": "[1]", "value": 53, "unit": "%"}]}
{"smiles": "c1ccc(Cn2ccnc2CSc2nc(-c3ccccc3)c(-c3ccccc3)[nH]2)cc1", "note": "[Compound 1K, 2-[(1-benzylimidazol-2-yl)methylthio]-4,5-diphenylimidazole]", "values": [{"measurement": "In-vitro % Inhibition at 1»g/ml", "setting": "[1]", "value": 57, "unit": "%"}]}
{"smiles": "c1ccc(-c2nc(SCc3ccncc3)[nH]c2-c2ccccc2)cc1", "note": "[Compound 1U, 2-[pyrid-4-ylmethylthio]-4,5-diphenylimidazole]", "values": [{"measurement": "In-vitro % Inhibition at 1»g/ml", "setting": "[1]", "value": 71, "unit": "%"}]}
